From patent US12435087B2, “Modulators of DCN-1 and methods of use thereof” (Cellarity, Inc., priority 2023, dated 2025)
Like-named read-outs stand apart in the source and are kept apart here.

Target: DCN1 (DCUND1) protein PONY domain (Homo sapiens (Human), UniProt Q96GG9)
Test: TR-FRET assay (binding to DCN-1, displacement of FAM-labeled probe)
Procedure, shortened: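 Compounds read at 1, 5 and 24 h, 0.1% final DMSO, by TR-FRET between terbium-streptavidin on biotinylated DCN1 PONY domain (E. coli) and a FAM-tagged non-covalent inhibitor probe. Two setups used, 5 nM protein with 20 nM labelled probe, or 0.31 nM protein with 100 nM labelled plus 800 nM unlabelled probe; buffer had TritonX and 200 mM NaCl. % activity relative to high (with probe) and low (without probe) controls.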

[1] = 24 hr after treatment with compound, read-out: TR FRET IC50 24 hr
[2] = TR FRET IC50 1 hr (nM), 1 hr after treatment with compound
[3] = read-out: TR FRET IC50 1 hr, 1 hr after treatment with compound

Sequence of DCN1 (DCUND1) protein PONY domain (Q96GG9 60-248): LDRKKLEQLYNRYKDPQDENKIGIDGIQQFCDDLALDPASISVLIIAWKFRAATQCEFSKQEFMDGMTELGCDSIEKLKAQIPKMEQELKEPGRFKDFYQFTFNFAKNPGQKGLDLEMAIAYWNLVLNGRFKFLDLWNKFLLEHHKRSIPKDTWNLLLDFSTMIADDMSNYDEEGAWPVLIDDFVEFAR

| SMILES | IC50 [1] [nM] | IC50 [2] [nM] | IC50 [3] [nM] |
| --- | --- | --- | --- |
| C=C(CO)C(=O)NCc1cccc([C@@H]2c3cnn(-c4ccccc4)c3N(CC)C(=O)[C@H]2NC(=O)c2cccc(C(F)(F)F)c2)c1 [Compound I-76] | 1000 to 3000 | 1000 to 3000 |  |
| C=C(CN1CCOCC1)C(=O)NCc1cccc([C@@H]2c3cnn(-c4ccccc4)c3N(CC)C(=O)[C@H]2NC(=O)c2ccnn2C)c1 [Compound I-266] | 1000 to 3000 | 1000 to 3000 |  |
| CCN1C(=O)[C@@H](NC(=O)c2cccc(C(F)(F)F)c2)[C@@H](c2cccc(NC(=O)C3=CCN(C)C3)c2)c2c(C)nn(-c3ccccc3)c21 (racemic) [Compound I-148] | 200 to 1000 | 1000 to 3000 |  |
| C=CC(=O)N(C)c1ccccc1[C@H]1c2cnn(-c3ccccc3)c2N(CC)C(=O)[C@@H]1NC(=O)c1cccc(C(F)(F)F)c1 (racemic) [Compound I-97, ˜{N}—[˜{rac}-(4˜{S},5˜{R})-7-ethyl-4-[2-[methyl(prop-2-enoyl)amino]phenyl]-6-oxo-1-phenyl-4,5-dihydropyrazolo[3,4-b]pyridin-5-yl]-3-(trifluoromethyl)benzamide] | 1000 to 3000 | 1000 to 3000 |  |
| C=C(CN1CCC(F)(F)C1)C(=O)NCc1cccc([C@H]2c3cnn(-c4ccccc4)c3N(CC)C(=O)[C@@H]2NC(=O)c2cccc(C(F)(F)F)c2)c1 [Compound I-102] | 1000 to 3000 | 1000 to 3000 |  |
| CCN1C(=O)[C@@H](NC(=O)c2cccc(C(F)(F)F)c2)[C@H](c2ccccc2CNC(=O)/C=C/CN(C)C)c2cnn(-c3ccccc3)c21 (racemic) [Compound I-120] | 1000 to 3000 | 1000 to 3000 |  |
| C=C(CN1CC2CC(C1)O2)C(=O)N(C)Cc1cccc([C@@H]2c3cnn(-c4ccccc4)c3N(CC)C(=O)[C@H]2NC(=O)c2ccn(C(F)(F)F)n2)c1 [Compound I-253] | ≤ 200 | 1000 to 3000 |  |
| C=C(CN1CCN(C2COC2)CC1)C(=O)N[C@H](C)c1cccc([C@@H]2c3cnn(-c4ccccc4)c3N(CC)C(=O)[C@H]2NC(=O)c2nccc(C(F)(F)F)n2)c1 (mixture of isomers) [Compound I-366] | 1000 to 3000 | 1000 to 3000 |  |
| C/C=C(\CN1CCN(C2COC2)CC1)C(=O)N(C)Cc1cccc([C@@H]2c3cnn(-c4ccccc4)c3N(CC)C(=O)[C@H]2NC(=O)c2ccn(C(F)(F)F)n2)c1 [Compound I-237, N-((4R,5S)-7-ethyl-4-(3-(((E)-N-methyl-2-((4-(oxetan-3-yl)piperazin-1-yl)methyl)but-2-enamido)methyl)phenyl)-6-oxo-1-phenyl-4,5,6,7-tetrahydro-1H-pyrazolo[3,4-b]pyridin-5-yl)-1-(trifluoromethyl)-1H-pyrazole-3-carboxamide] | 200 to 1000 | 1000 to 3000 |  |
| CCN1C(=O)[C@@H](NC(=O)c2cccc(C(F)(F)F)c2)[C@H](c2ccc(F)c(NC(=O)/C=C/CN(C)C)c2)c2cnn(-c3ccccc3)c21 [Compound I-32] | ≤ 200 | 1000 to 3000 |  |
| CCN1C(=O)[C@@H](NC(=O)c2cccc(C(F)(F)F)c2)[C@H](c2cccc(CNC(=O)C(F)Cl)c2)c2cnn(-c3ccccc3)c21 (mixture of isomers) [Compound I-100] | 1000 to 3000 | 1000 to 3000 |  |
| C=C(CN1CC2CCC(C1)O2)C(=O)NCc1cccc([C@@H]2c3cnn(-c4ccccc4)c3N(CC)C(=O)[C@H]2NC(=O)c2cccc(C(F)(F)F)c2)c1 [Compound I-136] | ≤ 200 |  | ≤ 200 |
| C=C(CC(=O)OC)C(=O)Nc1cccc([C@@H]2c3c(C)nn(-c4ccccc4)c3N(CC)C(=O)[C@H]2NC(=O)c2cccc(C(F)(F)F)c2)c1 (racemic) [Compound I-41] | 1000 to 3000 | 1000 to 3000 |  |
| C=C(CN1CCC12COC2)C(=O)N(C)Cc1cccc([C@@H]2c3cnn(-c4ccccc4)c3N(CC)C(=O)[C@H]2NC(=O)c2ccn(C(F)(F)F)n2)c1 [Compound I-371] | 200 to 1000 | 1000 to 3000 |  |
| CCN1C(=O)[C@@H](NC(=O)c2cccc(C(F)(F)F)c2)[C@H](c2cccc(CN(C)C/C=C/C(=O)N(C)C)c2)c2cnn(-c3ccccc3)c21 [Compound I-339] | 1000 to 3000 | 1000 to 3000 |  |
| C=C(CN1CCN(C2COC2)CC1)C(=O)NCc1cccc([C@H]2c3cnn(-c4ccccc4)c3N(CC)C(=O)[C@@H]2NC(=O)c2cccc(C(F)(F)F)c2)c1 [Compound I-134] | 200 to 1000 | 1000 to 3000 |  |
| C=C(CN1CC2(COC2)C1)C(=O)NCc1cccc([C@@H]2c3c(C)nn(-c4ccccc4)c3N(CC)C(=O)[C@H]2NC(=O)c2cccc(C(F)(F)F)c2)c1 [Compound I-283] | ≤ 200 |  | ≤ 200 |
| C=C(C(=O)NCc1cccc([C@@H]2c3cnn(-c4ccccc4)c3N(CC)C(=O)[C@H]2NC(=O)c2cccc(C(F)F)c2)c1)C(C)N(C)C1COC1 (stereo partly shown) [Compound I-277] | ≤ 200 |  | ≤ 200 |
| CCN1C(=O)[C@H](NC(=O)c2cccc(C(F)(F)F)c2)[C@@H](c2cccc(CNC(=O)C3=CCN(C)C3)c2)c2c(C)nn(-c3ccccc3)c21 [Compound I-362, N-(3-((4S,5R)-7-ethyl-3-methyl-6-oxo-1-phenyl-5-(3-(trifluoromethyl)benzamido)-4,5,6,7-tetrahydro-1H-pyrazolo[3,4-b]pyridin-4-yl)benzyl)-1-methyl-2,5-dihydro-1H-pyrrole-3-carboxamide] | 1000 to 3000 | 1000 to 3000 |  |
| C=C(CN1CC2CC1CO2)C(=O)NCc1cccc([C@H]2c3c(C)nn(-c4ccccc4)c3N(CC)C(=O)[C@@H]2NC(=O)c2cccc(C(F)(F)F)c2)c1 (stereo partly shown) [Compound I-294] | ≤ 200 | 200 to 1000 |  |
| CCN1C(=O)[C@@H](NC(=O)c2cccc(C(F)(F)F)c2)[C@H](c2cccc(CN(C)C#N)c2)c2c(C)nn(-c3ccccc3)c21 (racemic) [Compound I-40] | 1000 to 3000 | 1000 to 3000 |  |
| C=C(CN1CCOCC1)C(=O)NCc1cccc([C@@H]2c3cnn(-c4ccccc4)c3N(CC)C(=O)[C@H]2NC(=O)c2ccn(CC(F)(F)F)n2)c1 [Compound I-297] | ≤ 200 | 200 to 1000 |  |
| C=C(C(=O)NCc1cccc([C@@H]2c3cnn(-c4ccccc4)c3N(CC)C(=O)[C@H]2NC(=O)c2nccc(C(F)(F)F)n2)c1)C(C)N1CCN(C2COC2)CC1 (stereo partly shown) [Compound I-310] | ≤ 200 |  | ≤ 200 |
| C=C(CN1CCOCC1)C(=O)NCc1ccccc1[C@@H]1c2cnn(-c3ccccc3)c2N(CC)C(=O)[C@H]1NC(=O)c1cccc(C(F)(F)F)c1 (racemic) [Compound I-153] | ≤ 200 |  | ≤ 200 |
| C=C(CN1C2CCC1COC2)C(=O)NCc1cccc([C@@H]2c3cnn(-c4ccccc4)c3N(CC)C(=O)[C@H]2NC(=O)c2cccc(C(F)(F)F)c2)c1 [Compound I-289] | ≤ 200 |  | ≤ 200 |
| CCN1C(=O)[C@@H](NC(=O)c2cccc(C(F)(F)F)c2)[C@H](c2ccccc2CNC#N)c2c(C)nn(-c3ccccc3)c21 (racemic) [Compound I-149] | 200 to 1000 | 1000 to 3000 |  |
| C=C(C(=O)NCc1cccc([C@@H]2c3cnn(-c4ccccc4)c3N(CC)C(=O)[C@H]2NC(=O)c2ccn(C3CC3)n2)c1)C(C)N(C)C1COC1 (stereo partly shown) [Compound I-327] | ≤ 200 |  | ≤ 200 |
| C=C(CN(C)C1COC1)C(=O)NCc1cccc([C@H]2c3cnn(-c4ccccc4)c3N(CC)C(=O)[C@@H]2NC(=O)c2cccc(C(F)(F)F)c2)c1 [Compound I-154] | 200 to 1000 | 1000 to 3000 |  |
| C=C(C(=O)NCc1cccc([C@@H]2c3cnn(-c4ccccc4)c3N(CC)C(=O)[C@H]2NC(=O)c2csc(C)n2)c1)C(C)N(C)C1COC1 (stereo partly shown) [Compound I-278] | ≤ 200 |  | ≤ 200 |
